Test results published in patent US20240391862A1, “(1,4,5-TRISUBSTITUTED-1H-PYRAZOL-3-YL)OXY-2-ALKOXY ALKYL ACIDS AND THEIR DERIVATIVES, THEIR SALTS AND THEIR USE AS HERBICIDAL AGENTS” (Bayer AKtiengesellschaft, priority 2021, published 2024).

What was measured:
ECHCG = test: Post-emergence herbicidal effect, greenhouse pot test; type: in vivo, Echinochloa crus-galli
Procedure, shortened: (§1)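 Greenhouse pot plants in sandy loam receive a one-leaf-stage spray at 20 to 320 g/ha. Activity is assessed visually around 3 weeks afterwards on a 0–100% scale, where 100% means the plants have died.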

ZEAMX = test: Post-emergence herbicidal effect and crop plant compatibility, greenhouse pot test; type: in vivo, Zea mays; conditions: 20 g/ha, one-leaf stage, rated visually after about 3 weeks vs untreated controls
Procedure, shortened: (§2)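 Visual % activity scored roughly 3 weeks post-spray against untreated plants, where 100% means death and 0% equals control. Plants were treated at the one-leaf stage, 2 to 3 weeks after sowing in sandy loam, at 20 to 320 g/ha.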

ALOMY = test: Post-emergence herbicidal effect, greenhouse pot test; type: in vivo, Alopecurus myosuroides; conditions: Alopecurus myosuroides, 504 h, 320 g/ha, visual rating about 3 weeks after treatment, read-out: Post-emergence effect against ALOMY
Procedure, shortened: as §1

AMARE = test: as above; type: in vivo, Amaranthus retroflexus; conditions: Amaranthus retroflexus, 504 h, 320 g/ha, visual rating about 3 weeks after treatment, read-out: Post-emergence effect against AMARE
Procedure, shortened: as §1

LOLRI = test: as above; type: in vivo, Lolium rigidum; conditions: Lolium rigidum, 504 h, 320 g/ha, read-out: Post-emergence effect against LOLRI in %
Procedure, shortened: as §1

SETVI = test: as above; type: in vivo, Setaria viridis; conditions: 320 g/ha
Procedure, shortened: as §1

ABUTH = test: as above; type: in vivo, Abutilon theophrasti; conditions: Abutilon theophrasti, 504 h, 320 g/ha, visual rating about 3 weeks after treatment, read-out: Post-emergence effect against ABUTH
Procedure, shortened: as §1

AVEFA = test: as above; type: in vivo, Avena fatua; conditions: Avena fatua, 504 h, 320 g/ha, visual rating about 3 weeks after treatment, read-out: Post-emergence effect against AVEFA
Procedure, shortened: as §1

DIGSA = test: as above; type: in vivo, Digitaria sanguinalis; conditions: Digitaria sanguinalis, 504 h, 320 g/ha, visual rating about 3 weeks after treatment, read-out: Post-emergence effect against DIGSA
Procedure, shortened: as §1

TRZAS = test: Post-emergence herbicidal effect and crop plant compatibility, greenhouse pot test; type: in vivo, Triticum aestivum; conditions: for Post-emergence effect against TRZAS: visual rating about 3 weeks after treatment, crop plant
Procedure, shortened: as §2

ORYSA = test: as above; type: in vivo, Oryza sativa; conditions: 320 g/ha, one-leaf stage, rated visually after about 3 weeks vs untreated controls
Description: (§3) • ALOMY: Alopecurus myosuroides SETVI: Setaria viridis • AVEFA: Avena fatua POLCO: Fallopia convolvulus • AMARE: Amaranthus retroflexus ECHCG: Echinochloa crus-galli • LOLRJ: Lolium rigidum STEME: Stellaria media • VERPE: Veronica persica MATIN: Tripleurospermum inodorum • DIGSA: Digitaria sanguinalis ABUTH: Abutylon threophrasti • TRZAS: Triticum aestivum VIOTR: Viola tricolor • BRSNW: Brassica napus ZEAMX: Zea mays • PHBPU: Ipomoea purpurea GLXMA: Glycine max • ORYSA: Oryza sativa HORMU: Hordeum murinum
(§4) Seeds of monocotyledonous and dicotyledonous weeds and crop plants are placed in sandy loam in plastic or organic planting pots, covered with soil and cultivated in a greenhouse under controlled growth conditions. 2 to 3 weeks after sowing, the trial plants are treated at the one-leaf stage. The compounds of the invention, formulated in the form of wettable powders (WP) or as emulsion concentrates (EC), are then sprayed onto the green parts of the plants as aqueous suspension or emulsion with addition of 0.5% additive at a water application rate of 600 l/ha (converted). After the test plants have been kept in the greenhouse under optimum growth conditions for about 3 weeks, the activity of the preparations is rated visually in comparison to untreated controls. For example, 100% activity=the plants have died, 0% activity=like control plants.
(§5) Tables 20a to 38c below show the effects/crop compatibilities of selected compounds of the general formula (I) on various harmful plants at an application rate corresponding to 20 to 320 g/ha, which were obtained by the trial procedure specified above.

GLXMA = test: as above; type: in vivo, Glycine max; conditions: 20 g/ha, visual rating about 3 weeks after treatment, crop plant
Description: as §3, §4, §5

PHBPU = test: Post-emergence herbicidal effect, greenhouse pot test; type: in vivo, Ipomoea purpurea; conditions: 320 g/ha
Procedure, shortened: as §1

## COC(=O)C(OC)Oc1nn(-c2cnccn2)c(-c2ccc(F)nc2)c1Cl (stereo not drawn) [Example I-35]
ECHCG; Echinochloa crus-galli, 504 h, 80 g/ha, read-out: Post-emergence effect against ECHCG in %
  pest or weed control at 80 g/ha: 80%
ECHCG; Echinochloa crus-galli, 504 h, 320 g/ha, read-out: Post-emergence effect against ECHCG in %
  pest or weed control at 320 g/ha: 90%
ZEAMX; Zea mays, 504 h, read-out: Post-emergence effect at 20 g/ha against ZEAMX in %
  plant injury at 20 g/ha: 20%
ALOMY
  pest or weed control at 320 g/ha: 90%
AMARE
  pest or weed control at 320 g/ha: 80%
LOLRI
  pest or weed control at 320 g/ha: 80%
SETVI; Setaria viridis, 504 h, read-out: Post-emergence effect against SETVI in %
  pest or weed control at 320 g/ha: 80%
ABUTH
  pest or weed control at 320 g/ha: 80%
AVEFA
  pest or weed control at 320 g/ha: 80%
DIGSA
  pest or weed control at 320 g/ha: 80%
TRZAS; Triticum aestivum, 504 h, 20 g/ha, one-leaf stage, rated visually after about 3 weeks vs untreated controls, read-out: Post-emergence effect at 20 g/ha against TRZAS in %
  percent crop injury (phytotoxicity) to wheat, post-emergence at 20 g/ha: 20%
ORYSA
  Post-emergence effect at 320 g/ha against ORYSA in %: 10%

## COC(Oc1nn(-c2cccc(C)c2F)c(-c2ccnc(F)c2)c1Br)C(=O)O (stereo not drawn) [Example I-92]
ECHCG; 80 g/ha
  Post-emergence effect against ECHCG in %: 80%
ECHCG; 320 g/ha
  Post-emergence effect against ECHCG in %: 90%
ZEAMX
  Post-emergence effect at 20 g/ha against ZEAMX in %: 20%
SETVI
  Post-emergence effect against SETVI in %: 80%
GLXMA
  Post-emergence effect against GLXMA: 10%
PHBPU
  Post-emergence effect against PHBPU in %: 80%
TRZAS; 20 g/ha, one-leaf stage, rated visually after about 3 weeks vs untreated controls
  Post-emergence effect at 20 g/ha against TRZAS in %: 0%
TRZAS; 80 g/ha
  Post-emergence effect against TRZAS: 10%
TRZAS; 320 g/ha
  Post-emergence effect against TRZAS: 20%
